pIC50: −log10 of the molar value.
Test system: A375 multi-cell spheroids with HUVEC/MSC, viability
Assay: Anticancer human tumor A375 cell line growth inhibition [GQUAD];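 further: spheroids exposed to compounds for seven days before readout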
Settings: for pIC50: curve of first compound; for viability, T/C: stronger effect = lower value; active means viability on the fitted dose curve at most 10% of control; inactive means the rest
How it was run: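 Viability of tumor cells grown as complex spheroids with endothelial and stromal cells, exposed to drug combinations. Top concentration at or near clinical Cmax (else 10 microM), diluted in half-log increments.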

[1] = second compound 0.0316 µM, first compound 0.0316 µM
[2] = second compound 0.0316 µM, first compound 0.1 µM
[3] = second compound 0.0316 µM, first compound 0.316 µM
[4] = second compound 0.0316 µM, first compound 1 µM
[5] = second compound 0.0316 µM, first compound 3.16 µM
[6] = second compound 0.0316 µM, first compound 10 µM
[7] = second compound 0.1 µM, first compound 0.0316 µM
[8] = second compound 0.1 µM, first compound 0.1 µM
[9] = second compound 0.1 µM, first compound 0.316 µM
[10] = second compound 0.1 µM, first compound 1 µM
[11] = second compound 0.1 µM, first compound 3.16 µM
[12] = second compound 0.1 µM, first compound 10 µM
[13] = second compound 0.316 µM, first compound 0.0316 µM
[14] = second compound 0.316 µM, first compound 0.1 µM
[15] = second compound 0.316 µM, first compound 0.316 µM
[16] = second compound 0.316 µM, first compound 1 µM
[17] = second compound 0.316 µM, first compound 3.16 µM
[18] = second compound 0.316 µM, first compound 10 µM
[19] = second compound 1 µM, first compound 0.0316 µM
[20] = second compound 1 µM, first compound 0.1 µM
[21] = second compound 1 µM, first compound 0.316 µM
[22] = second compound 1 µM, first compound 1 µM
[23] = second compound 1 µM, first compound 3.16 µM
[24] = second compound 1 µM, first compound 10 µM
[25] = second compound 3.16 µM, first compound 0.0316 µM
[26] = second compound 3.16 µM, first compound 0.1 µM
[27] = second compound 3.16 µM, first compound 0.316 µM
[28] = second compound 3.16 µM, first compound 1 µM
[29] = second compound 3.16 µM, first compound 3.16 µM
[30] = second compound 3.16 µM, first compound 10 µM
[31] = second compound 10 µM, first compound 0.0316 µM
[32] = second compound 10 µM, first compound 0.1 µM
[33] = second compound 10 µM, first compound 0.316 µM
[34] = second compound 10 µM, first compound 1 µM
[35] = second compound 10 µM, first compound 3.16 µM
[36] = second compound 10 µM, first compound 10 µM

CC1COCCN1c1cc(C2(O)CC3CCC(C2)O3)c2cnn(-c3ccn[nH]3)c2n1 (centres undefined) + Cc1[nH]c2ccc(F)cc2c1-c1nc2c3cccnc3c3ncccc3c2[nH]1
6.68: pIC50 (second compound 1 µM)
inactive: viability, T/C [1] 114% | viability, T/C [2] 103% | viability, T/C [3] 51.9% | viability, T/C [4] 16.9% | viability, T/C [5] 12.2% | viability, T/C [6] 8.69% | viability, T/C [7] 113% | viability, T/C [8] 94.9% | viability, T/C [9] 54% | viability, T/C [10] 18% | viability, T/C [11] 13.2% | viability, T/C [13] 122% | viability, T/C [14] 85% | viability, T/C [15] 47.8% | viability, T/C [16] 19.7% | viability, T/C [17] 13.3% | viability, T/C [19] 79.1% | viability, T/C [20] 67.4% | viability, T/C [21] 40.7% | viability, T/C [22] 16.6% | viability, T/C [23] 13.3% | viability, T/C [25] 31.5% | viability, T/C [26] 17.9% | viability, T/C [27] 13.5% | viability, T/C [31] 39% | viability, T/C [32] 18.9% | viability, T/C [33] 18.6% | viability, T/C [34] 9.83%
6.47: pIC50 (second compound 0.0316 µM)
active: viability, T/C [12] 7.58% | viability, T/C [18] 9.21% | viability, T/C [24] 8.26% | viability, T/C [28] 11.2% | viability, T/C [29] 6.29% | viability, T/C [30] 1.15% | viability, T/C [35] 11.4% | viability, T/C [36] 3.18%
> 7.50: pIC50 (second compound 3.16 µM) | pIC50 (second compound 10 µM)
6.45: pIC50 (second compound 0.1 µM)
6.55: pIC50 (second compound 0.316 µM)

COc1ccc([C@@H](O)c2cc(-c3ncnc4cc(N5CCOCC5)ccc34)c(F)cc2Cl)nn1 + Cc1[nH]c2ccc(F)cc2c1-c1nc2c3cccnc3c3ncccc3c2[nH]1
inactive: viability, T/C [1] 105% | viability, T/C [2] 108% | viability, T/C [3] 103% | viability, T/C [4] 126% | viability, T/C [5] 100% | viability, T/C [6] 77.5% | viability, T/C [7] 106% | viability, T/C [8] 102% | viability, T/C [9] 105% | viability, T/C [10] 112% | viability, T/C [11] 96.6% | viability, T/C [12] 85.6% | viability, T/C [13] 103% | viability, T/C [14] 112% | viability, T/C [15] 105% | viability, T/C [16] 110% | viability, T/C [17] 95.3% | viability, T/C [18] 87.9% | viability, T/C [19] 106% | viability, T/C [20] 112% | viability, T/C [21] 109% | viability, T/C [22] 113% | viability, T/C [23] 98.2% | viability, T/C [24] 68.1% | viability, T/C [25] 101% | viability, T/C [26] 96% | viability, T/C [27] 101% | viability, T/C [28] 79.1% | viability, T/C [29] 77.2% | viability, T/C [30] 50.4% | viability, T/C [31] 113% | viability, T/C [32] 107% | viability, T/C [33] 122% | viability, T/C [34] 97.2% | viability, T/C [35] 78.2% | viability, T/C [36] 56.3%
< 5.00: pIC50 (second compound 0.0316 µM) | pIC50 (second compound 0.1 µM) | pIC50 (second compound 0.316 µM) | pIC50 (second compound 1 µM) | pIC50 (second compound 3.16 µM) | pIC50 (second compound 10 µM)
